Experimental data published in publication PMC6380956 (Biochemistry, 2019).

Assays:
[1] = target: T1, MjCobT (Methanocaldococcus jannaschii, UniProt Q58993); experiment: product formation by purified enzyme from NaMN and [[…]-14C]-DMB, TLC; type: biochemical
T1 sequence (Q58993 1-350): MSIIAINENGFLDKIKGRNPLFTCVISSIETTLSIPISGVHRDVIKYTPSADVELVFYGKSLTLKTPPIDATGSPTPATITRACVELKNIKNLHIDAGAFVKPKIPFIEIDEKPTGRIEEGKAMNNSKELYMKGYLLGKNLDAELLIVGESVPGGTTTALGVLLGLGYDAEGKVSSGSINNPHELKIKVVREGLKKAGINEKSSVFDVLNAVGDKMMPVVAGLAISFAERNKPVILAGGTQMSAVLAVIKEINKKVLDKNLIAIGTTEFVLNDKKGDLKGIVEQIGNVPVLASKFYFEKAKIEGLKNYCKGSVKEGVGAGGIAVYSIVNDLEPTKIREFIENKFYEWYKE

[2] = target: Methanocaldococcus jannaschii CobT (NaMN:DMB phosphoribosyltransferase) (Methanocaldococcus jannaschii); experiment: AUC
[3] = target: T1, MjCobT; experiment: isothermal titration calorimetry; type: binding

Cc1cc2ncn([C@H]3O[C@H](COP(=O)(O)O)[C@@H](O)[C@H]3O)c2cc1C [α-RP]
product formation by purified enzyme from NaMN and [2-14C]-DMB, TLC [1]: the amount of MjCobT-generated α-RP is displayed as a function of time for each concentration of NaMN tested

Methanocaldococcus jannaschii CobT (NaMN:DMB phosphoribosyltransferase) (enzyme)
percent of the c(s) distribution in the dimer species [2]: 81.3% | stoichiometry N [2]: 2

O=C([O-])c1ccc[n+]([C@@H]2O[C@H](COP(=O)(O)O)[C@@H](O)[C@H]2O)c1 [NaMN]
Kd [3]: 3.2 µM
